“And” between values parts separate entries of the source, which are not always exact repeats. Equal entries are not always repeated. Where no end group is shown, it is not given here. Side-chain parts run from the residue outwards. rhodamine‑labelled PEGylated perfluoro‑15‑crown‑5 ether nanoemulsion = not defined here; carboxyfluorescein = N-terminal fluorescence label (CF)
Legend:
[1] = tested on: human neutrophils; assay: Cell surface activation markers CD11b, CD63, CD66b on human neutrophils; assay type: cell-based; conditions: 50 µl ml^−1 hNPPFCs or 1 µg ml^−1 LPS, 1 h, 37 °C
Description: A total of 1 × 10^6 isolated human neutrophils were incubated with 50 µl ml^−1 ^hNPPFCs, 1 µg ml^−1 LPS or only DMEM for 1 h at 37 °C followed by intense washing with MACS buffer. Afterward, 1 × 10^5 cells were transferred into 96-well plates and stained for CD11b and CD63 (eBioscience, clone HSC6) or CD66b (eBioscience, clone G10F5) for 20 min at 4 °C. After two washing steps with MACS buffer, cells were analyzed by flow cytometry. A total of 1 × 10^5 isolated murine neutrophils were transferred into a 96-well plate and stained for CD11b, CD62L and CD63 for 20 min at 4 °C. After two washing steps with MACS buffer, cells were analyzed by flow cytometry.

[2] = tested on: human neutrophils; assay: Migration of human neutrophils toward IL-8 (Boyden chamber); assay type: cell-based; conditions: 50 µl hNPPFCs, 1 h, 37 °C; 100 ng ml^−1 IL-8
Description: A total of 1 × 10^6 isolated human neutrophils were incubated with or without 50 µl ^hNPPFCs for 1 h at 37 °C in 1 ml DMEM. After washing with DMEM, 1 × 10^5 of these cells were placed in a Boyden chamber containing 200 µl DMEM. The lower part of the chamber contained 100 ng ml^−1 IL-8 in 1 ml DMEM. After 1 h in an incubator, the flow through was collected, and the number of neutrophils was counted by flow cytometry. Murine neutrophils were isolated from Matrigel–LPS plugs and stained for Ly6G. Afterward, cells were washed twice, and the number of neutrophils was determined by flow cytometry.

[3] = tested on: murine neutrophils; assay: Ex vivo mNPPFC uptake by neutrophils from mice with Matrigel-LPS plug, flow cytometry; assay type: cell-based, mouse; set-up: ex vivo uptake by murine neutrophils, Ctrl - mNPPFCs, raw data: unit not given here; conditions: for ex vivo uptake by murine neutrophils, Ctrl - mNPPFCs, raw data: Ctrl mice, single samples #1-#5
Description: To induce defined inflammatory foci, we adopted a recently developed model of localized subcutaneous inflammation. To this end, ice-cold Matrigel (Corning) was doped with LPS (1 µg µl^−1; Salmonella typhimurium, Sigma-Aldrich) and subcutaneously (s.c.) implanted into the neck of the mice. Twenty-four hours after implanting the plug, neutrophils were isolated from the blood and incubated ex vivo with ^mNPPFCs or ^ConPFCs. In separate experiments, 24 h after implantation, ^mNPPFCs or ^ConPFCs were injected intravenously, and immune cells were isolated from the blood. In further experiments, 1 d after plug injection, mice received 1 mmol per kg BW ^mNPPFCs, and, 24 h later, the bone marrow was analyzed by ^1H/^19F MRI. Thereafter, mice were killed, and neutrophils were isolated from the bone marrow for determination of cell numbers. In each case, immune cells were analyzed by flow cytometry.
A total of 1 × 10^6 cells were incubated with 10 µl of the emulsion over a period of 80 min at 37 °C. At distinct time points, 50 µl of the samples were transferred into 2 ml of ice-cold MACS buffer and analyzed for rhodamine fluorescence by flow cytometry.

[4] = tested on: murine neutrophils; assay: ROS production of murine neutrophils after mNPPFC injection (dihydroethidium, UPLC); assay type: in vivo, mouse; conditions: in the presence of the targeting PFCs
Description: […] per kg BW ^mNPPFCs or saline were injected i.v., and, 2 h later, neutrophils were isolated from the bone marrow, and extracellular ROS was measured in the cell supernatant by oxidation of dihydroethidium followed by UPLC analysis.
A total of 5 × 10^6 human neutrophils were incubated in 10 ml DMEM with or without 1 µg ml^−1 peptide or 50 µl ml^−1 emulsion. At distinct time points, cells were pelleted, and 1 ml of the supernatant was immediately frozen at −80 °C. Subsequently, the amount of ROS was determined by chemiluminescence analysis. […] After centrifugation, 80 µl supernatant was used to determine ROS by UPLC measurement (Waters Acquity Bio H-Class with 2475 FLD Detector). To this end, gradients A and B (0.1% trifluoroacetic acid in 1 l water and acetonitrile, respectively) at a flow rate of 0.26 ml min^−1 at 17 °C were used. Dihydroethidium was excited and detected at 480 nm and 580 nm, respectively.
Extended Data Fig. 9 Impact of ^mNPPFCs on murine neutrophils. a, Differentially expressed genes (DEGs) identified by bulk RNA sequencing of murine blood neutrophils after intravenous injection of ^mNPPFCs, ^ConPFCs or NaCl (Ctrl) as control. […] In total 25655 RNA transcripts were analyzed. b, Cell surface expression of CD11b, CD62L, CD63 on blood derived murine neutrophils after intravenous application of NaCl (Ctrl) or ^mNPPFCs. […]

| Substance | expression of CD11b, CD63 and CD66b on human neutrophils [1] | migration of human neutrophils toward IL-8 [2] | ex vivo uptake by murine neutrophils under LPS-stimulated versus unstimulated conditions ([3]; 24 h after Matrigel-LPS implantation) | ex vivo uptake by murine neutrophils, Ctrl - mNPPFCs, raw data ([3]; time 0) | ex vivo uptake by murine neutrophils, Ctrl - mNPPFCs, raw data ([3]; time 40) | ROS production of murine neutrophils [4] |
| --- | --- | --- | --- | --- | --- | --- |
| hNPPFCs: PEGylated rhodamine-labeled perfluorocarbon nanoemulsion coupled with human neutrophil-specific peptide hNP (carboxyfluorescein-DLVTSKLQVGGGC; also: C-terminal Cys coupled via maleimide-PEG2000-DSPE to rhodamine-labelled perfluorocarbon nanoemulsion) | did not affect expression of these proteins | no evidence for any changes in their chemotactic properties |  |  |  |  |
| mNPPFCs: PEGylated rhodamine-labeled perfluoro-15-crown-5 ether nanoemulsion (maleimide PFCs) coupled with murine neutrophil-specific peptide mNP (carboxyfluorescein-DFYKPMPNLRITGGGC([maleimide‑PEG2000‑DSPE-rhodamine‑labelled PEGylated perfluoro‑15‑crown‑5 ether nanoemulsion]); reading uncertain; also: printed as DFYKPMPNLRIT-GGG-C) |  |  | more rapid and potent uptake | 101 and 127 and 111 and 105 | 4266 and 3190 and 3194 and 3820 and 4700 | unaltered |
